# Legend:
# bedstraw = experiment: Test B pre/postemergence bedstraw; assay type: in vivo, Galium aparine
# Method in brief: (§1)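 Response is a visual 0-to-10 score relative to untreated plants, where 0 means no effect and 10 means complete control, taken twelve to sixteen days after application. Treatments went onto soil at planting and onto foliage of 1- to 4-leaf plants, using a surfactant-containing non-phytotoxic solvent.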
# blackgrass = experiment: Test B pre/postemergence blackgrass; assay type: in vivo, Alopecurus myosuroides
# Method in brief: as §1
# surinam grass = experiment: Test B pre/postemergence surinam grass; assay type: in vivo, Brachiaria decumbens
# Method in brief: as §1
# cocklebur = experiment: Test B pre/postemergence cocklebur; assay type: in vivo, Xanthium strumarium
# Method in brief: as §1
# corn = experiment: Test B pre/postemergence corn; assay type: in vivo, Zea mays
# Method in brief: as §1
# crabgrass = experiment: Test B pre/postemergence crabgrass; assay type: in vivo, Digitaria sanguinalis
# Method in brief: as §1
# giant foxtail = experiment: Test B pre/postemergence giant foxtail; assay type: in vivo, Setaria faberii
# Method in brief: as §1
# morningglory = experiment: Test B pre/postemergence morningglory; assay type: in vivo, Ipomoea hederacea
# Method in brief: as §1
# pigweed = experiment: Test B pre/postemergence pigweed; assay type: in vivo, Amaranthus retroflexus
# Method in brief: as §1
# soybean = experiment: Test B pre/postemergence soybean; assay type: in vivo, Glycine max
# Method in brief: as §1
# velvetleaf = experiment: Test B pre/postemergence velvetleaf; assay type: in vivo, Abutilon theophrasti
# Method in brief: as §1
# wheat = experiment: Test B pre/postemergence wheat; assay type: in vivo, Triticum aestivum
# Method in brief: as §1
# wild oat = experiment: Test B pre/postemergence wild oat; assay type: in vivo, Avena fatua
# Method in brief: as §1
# rice = experiment: Test B flood test rice; assay type: in vivo, Oryza sativa
# Method in brief: (§2)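 Plants were grown to the 2-leaf stage before treatment with test chemical, then held in a greenhouse for twelve to sixteen days. Injury was visually rated against untreated controls on a 0–10 scale, where 0 is no effect and 10 is complete control.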
# smallflower flatsedge = experiment: Test B flood test smallflower flatsedge; assay type: in vivo, Cyperus difformis
# Method in brief: as §2
# bamyardgrass = experiment: Test B flood test barnyardgrass; assay type: in vivo, Echinochloa crus-galli
# Method in brief: as §2
# [1] = Preemergence, Rate 62 g/ha, scale of 0 to 10 where 0 is no effect and 10 is complete control
# [2] = Preemergence, Rate 250 g/ha, scale of 0 to 10 where 0 is no effect and 10 is complete control
# [3] = Preemergence, Rate 500 g/ha, scale of 0 to 10 where 0 is no effect and 10 is complete control
# [4] = Rate 62 g/ha, Postemergence, scale of 0 to 10 where 0 is no effect and 10 is complete control
# [5] = Rate 125 g/ha, Postemergence, scale 0 to 10
# [6] = Rate 125 g/ha, Preemergence, scale of 0 to 10 where 0 is no effect and 10 is complete control
# [7] = Rate 500 g/ha, Postemergence, scale 0 to 10, 0 no effect, 10 complete control
# [8] = Rate 62 g/ha, headed Pre-emergence (flood test species), scale 0 to 10 (0 no effect, 10 complete control)
# [9] = Rate 125 g/ha, Pre-emergence, flood test species, scale 0 to 10 where 0 is no effect and 10 is complete control
# [10] = Rate 250 g/ha, Pre-emergence, flood-test species, scale 0 to 10, 0 is no effect, 10 is complete control
# [11] = Rate 500 g/ha, Pre-emergence, flood test species, scale 0 to 10 (0 no effect, 10 complete control)
smiles,measurement,setting,value
COc1cc(C)cc(C)c1-n1c(=O)on(C(=O)N(c2ccc(F)cc2F)C(C)C)c1=O [Compound 223],Bedstraw plant response rating,bedstraw; [1],0
same,Bedstraw plant response rating,bedstraw; [2],0
same,"Plant response rating, Bedstraw",bedstraw; [3],3
same,Bedstraw plant response rating,bedstraw; [4],3
same,Bedstraw plant response rating,bedstraw; [5],3
same,Bedstraw plant response rating,bedstraw; [6],0
same,"Plant response rating (0 to 10; 0 is no effect, 10 is complete control), Bedstraw","bedstraw; Rate 250 g/ha, Postemergence",4
same,Bedstraw plant response rating,bedstraw; [7],5
same,Blackgrass plant response rating,blackgrass; [1],0
same,Blackgrass plant response rating,blackgrass; [2],4
same,"Plant response rating, Blackgrass",blackgrass; [3],5
same,Blackgrass plant response rating,blackgrass; [4],0
same,Blackgrass plant response rating,blackgrass; [5],0
same,Blackgrass plant response rating,blackgrass; [6],1
same,"Plant response rating (0 to 10; 0 is no effect, 10 is complete control), Blackgrass","blackgrass; Rate 250 g/ha, Postemergence",3
same,Blackgrass plant response rating,blackgrass; [7],1
same,B. signalgrass plant response rating,surinam grass; [1],0
same,B. signalgrass plant response rating,"surinam grass; Preemergence, Rate 250 g/ha, scale 0 to 10, 0 is no effect, 10 is complete control",3
same,"Plant response rating, B. signalgrass",surinam grass; [3],4
same,B. signalgrass plant response rating,surinam grass; [4],0
same,B. signalgrass plant response rating,"surinam grass; Rate 125 g/ha, Postemergence, scale 0 (no effect) to 10 (complete control)",0
same,B. signalgrass plant response rating,surinam grass; [6],0
same,"Plant response rating (0 to 10; 0 is no effect, 10 is complete control), B. signalgrass","surinam grass; Rate 250 g/ha, Postemergence",0
same,B. signalgrass plant response rating,surinam grass; [7],0
same,Cocklebur plant response rating,cocklebur; [1],0
same,Cocklebur plant response rating,cocklebur; [2],0
same,"Plant response rating, Cocklebur",cocklebur; [3],0
same,Cocklebur plant response rating,cocklebur; [4],0
same,Cocklebur plant response rating,cocklebur; [5],0
same,Cocklebur plant response rating,cocklebur; [6],0
same,"Plant response rating (0 to 10; 0 is no effect, 10 is complete control), Cocklebur","cocklebur; Rate 250 g/ha, Postemergence",0
same,Cocklebur plant response rating,cocklebur; [7],2
same,Corn plant response rating,corn; [1],0
same,Corn plant response rating,corn; [2],0
same,"Plant response rating, Corn",corn; [3],0
same,Corn plant response rating,corn; [4],0
same,Corn plant response rating,corn; [5],0
same,Corn plant response rating,corn; [6],0
same,"Plant response rating (0 to 10; 0 is no effect, 10 is complete control), Corn","corn; Rate 250 g/ha, Postemergence",0
same,Corn plant response rating,corn; [7],0
same,Crabgrass plant response rating,crabgrass; [1],4
same,Crabgrass plant response rating,crabgrass; [2],7
same,"Plant response rating, Crabgrass",crabgrass; [3],9
same,Crabgrass plant response rating,crabgrass; [4],0
same,Crabgrass plant response rating,crabgrass; [5],0
same,Crabgrass plant response rating,crabgrass; [6],6
same,"Plant response rating (0 to 10; 0 is no effect, 10 is complete control), Crabgrass","crabgrass; Rate 250 g/ha, Postemergence",1
same,Crabgrass plant response rating,crabgrass; [7],3
same,Giant foxtail plant response rating,giant foxtail; [1],7
same,"Plant response rating, Giant foxtail",giant foxtail; [3],9
same,Giant foxtail plant response rating,giant foxtail; [4],0
same,Giant foxtail plant response rating,giant foxtail; [5],0
same,Giant foxtail plant response rating,giant foxtail; [6],9
same,"Plant response rating (0 to 10; 0 is no effect, 10 is complete control), Giant foxtail","giant foxtail; Rate 250 g/ha, Postemergence",0
same,Giant foxtail plant response rating,giant foxtail; [7],1
same,Morningglory plant response rating,morningglory; [1],0
same,Morningglory plant response rating,morningglory; [2],1
same,"Plant response rating, Morningglory",morningglory; [3],1
same,Morningglory plant response rating,morningglory; [4],1
same,Morningglory plant response rating,morningglory; [5],3
same,Morningglory plant response rating,morningglory; [6],1
same,"Plant response rating (0 to 10; 0 is no effect, 10 is complete control), Morningglory","morningglory; Rate 250 g/ha, Postemergence",4
same,Morningglory plant response rating,morningglory; [7],6
same,Redroot pigweed plant response rating,pigweed; [1],0
same,Redroot pigweed plant response rating,pigweed; [2],7
same,"Plant response rating, Redroot pigweed",pigweed; [3],7
same,Redroot pigweed plant response rating,pigweed; [4],0
same,Redroot pigweed plant response rating,pigweed; [5],2
same,Redroot pigweed plant response rating,pigweed; [6],0
same,"Plant response rating (0 to 10; 0 is no effect, 10 is complete control), Redroot pigweed","pigweed; Rate 250 g/ha, Postemergence",3
same,Redroot pigweed plant response rating,pigweed; [7],5
same,Soybean plant response rating,soybean; [1],0
same,Soybean plant response rating,soybean; [2],0
same,"Plant response rating, Soybean",soybean; [3],0
same,Soybean plant response rating,soybean; [4],3
same,Soybean plant response rating,soybean; [5],3
same,Soybean plant response rating,soybean; [6],0
same,"Plant response rating (0 to 10; 0 is no effect, 10 is complete control), Soybean","soybean; Rate 250 g/ha, Postemergence",3
same,Soybean plant response rating,soybean; [7],4
same,Velvetleaf plant response rating,velvetleaf; [1],0
same,Velvetleaf plant response rating,velvetleaf; [2],0
same,"Plant response rating, Velvetleaf",velvetleaf; [3],0
same,Velvetleaf plant response rating,velvetleaf; [4],0
same,Velvetleaf plant response rating,velvetleaf; [5],0
same,Velvetleaf plant response rating,velvetleaf; [6],0
same,"Plant response rating (0 to 10; 0 is no effect, 10 is complete control), Velvetleaf","velvetleaf; Rate 250 g/ha, Postemergence",2
same,Velvetleaf plant response rating,velvetleaf; [7],3
same,Wheat plant response rating,wheat; [1],0
same,Wheat plant response rating,wheat; [2],0
same,"Plant response rating, Wheat",wheat; [3],0
same,Wheat plant response rating,wheat; [4],0
same,Wheat plant response rating,wheat; [5],0
same,Wheat plant response rating,wheat; [6],0
same,"Plant response rating (0 to 10; 0 is no effect, 10 is complete control), Wheat","wheat; Rate 250 g/ha, Postemergence",0
same,Wheat plant response rating,wheat; [7],0
same,Wild oats plant response rating,wild oat; [2],2
same,"Plant response rating, Wild oats",wild oat; [3],4
same,Wild oats plant response rating,wild oat; [4],0
same,Wild oats plant response rating,wild oat; [5],0
same,Wild oats plant response rating,wild oat; [6],0
same,"Plant response rating (0 to 10; 0 is no effect, 10 is complete control), Wild oats","wild oat; Rate 250 g/ha, Postemergence",0
same,Wild oats plant response rating,wild oat; [7],2
same,Rice plant response rating,rice; [8],0
same,Rice plant response rating,rice; [9],0
same,Rice plant response rating,rice; [10],0
same,Rice plant response rating,rice; [11],0
same,S. Flatsedge plant response rating,smallflower flatsedge; [8],0
same,S. Flatsedge plant response rating,smallflower flatsedge; [9],0
same,S. Flatsedge plant response rating,smallflower flatsedge; [10],0
same,S. Flatsedge plant response rating,smallflower flatsedge; [11],0
same,Barnyardgrass plant response rating,bamyardgrass; [8],0
same,Barnyardgrass plant response rating,bamyardgrass; [9],0
same,Barnyardgrass plant response rating,bamyardgrass; [10],0
same,Barnyardgrass plant response rating,bamyardgrass; [11],0
